Values of other authors as cited in paper PMC6021394, “Novel haptens and monoclonal antibodies with subnanomolar affinity for a classical analytical target, ochratoxin A” (Scientific Reports, 2018).

C[C@@H]1Cc2c(Cl)cc(C(=O)N[C@@H](Cc3ccccc3)C(=O)O)c(O)c2C(=O)O1 [OTA, Ochratoxin A]
tolerable weekly intake (European Food Safety Authority): 120 ng/kg of body weight
IARC carcinogenicity classification (possibly carcinogenic to humans): group 2B
